# Assay: Inhibition of ATX (unknown origin) expressed in human A2058 cells assessed as inhibition of LPC-induced cell invasion after 20 hrs by calcein-AM dye based matrigel-mediated Boyden chamber assay
row,Compound,IC50 [nM]
1,O=S(=O)(c1cc(C(=S)Nc2cc(F)c(F)c(F)c2)c(Cl)cc1Cl)N1CCOCC1,403
2,O=C(Nc1cc(F)c(Cl)c(F)c1)c1cc(S(=O)(=O)N2CCOCC2)c(Cl)cc1Cl,740
3,O=C(Nc1ccc(F)c(F)c1)c1cc(S(=O)(=O)N2CCOCC2)c(Cl)cc1Cl,528
